Reference: article PMC8300761, “In Vitro Antifungal Activity and Toxicity of Dihydrocarvone-Hybrid Derivatives against Monilinia fructicola” (Antibiotics, 2021)
In brackets after ≈: the same amount, converted by molar mass.

Key:
[1] = test system: Monilinia fructicola strain 1 (S1); test: radial mycelial growth test, M. fructicola strain 1 (S1); type: cell-based; details: PDA, 120 h at 24 °C in the dark; for EC50: Monilinia fructicola, 120 h, n = 6, read-out: EC50 ± SD, mycelial growth inhibition; for EC50 ± SD, mycelial growth inhibition: n = 6
Text: (§1) Both strains (S1 and S2) of M. fructicola were kindly provided by the phytopathology laboratory of the Servicio Agrícola y Ganadero de Chile (SAG), Santiago, Chile. The isolate S1 was recovered from infected peach from commercial orchards in the O’Higgins region, Chile, and the isolate S2 was recovered from infected nectarines from commercial orchards in the province of Maipo, Metropolitan Region, Chile and identified to species level with a PCR assay developed by the molecular biology laboratory belonging to SAG; these were maintained on potato dextrose agar (PDA) and incubated for 120 h at 24 °C.
(§2) The antifungal activity of all dihidrocarvone-hybrid derivatives (2–9) against both strains of M. fructicola was determined by the radial test previously reported. The test compounds were dissolved in ethanol (5% v/v) and added to the potato dextrose agar medium (PDA) medium in the petri dishes to obtain a final concentration of 10, 25, 50, 150, and 250 µg/mL. The mycelial growth diameters were measured after 120 h of incubation at 24 °C in the dark, and the inhibition percentages were calculated with respect to the negative ethanol control. The commercial fungicides Mystic® 520 SC (Pyrimethanil 400 g/L, Trifloxystrobin 120 g/L) (Lot: PAIS004727; Bayer, Santiago, Chile) and BC-1000® (grapefruit seed and pulp extract (Citrus x paridisi), 50% w/v (500 g/L)) were used as positive controls and were measured under the same conditions as the compounds.
(§3) The results were expressed as the effective concentration (EC50) that reduced mycelial growth by 50%. This value was determined by regressing the values of the percentage inhibition of radial growth against the compound concentration values. The fit analysis was performed using the Origin Pro® V. 8.0 software (OriginLab Corporation, Northampton, Massachusetts, EE.UU). These experiments were performed in triplicate and each assay was performed twice (n = 6). Significant differences were determined using a one-way analysis of variance, followed by a pairwise comparison of means (LSD test; p < 0.05) (Microsoft Office Excel® 2016).

Artemia salina L. larvae = test: brine shrimp lethality test (BSLT); type: in vivo; details: for LD50 (BSLT): Artemia salina larvae, 24 h, probit analysis
Protocol: The assay was carried out according to the principle and protocol previously described. Briefly, Artemia salina L. eggs were inserted into a box containing seawater; the box was placed under a UV lamp; after 48 h, the eggs hatched into larvae and were ready for the test. All of the compounds were dissolved in methanol at final concentrations of 1000 to 10 µg/mL. After 24 h, the live and dead shrimp were counted. The experiment was conducted in triplicate. The median lethal concentrations (LD50) with 95% confidence intervals were determined using the Probit analysis method. For LC50 values, probit analysis was used with Minitab V. 15 software (Minitab® Statistical Software, State College, PA, USA).

[2] = test system: Monilinia fructicola strain 2 (S2); test: radial mycelial growth test, M. fructicola strain 2 (S2); type: cell-based; details: PDA, 120 h at 24 °C in the dark, n = 6, read-out: EC50 ± SD, mycelial growth inhibition
Text: as §1, §2, §3

[3] = test system: both strains of M. fructicola; test: radial mycelial growth test, inhibition percentages over both strains; type: cell-based; details: Monilinia fructicola, range over strains 1 and 2, read-out: inhibition percentage of mycelial growth
Text: as §1
as §2, with “The test compounds were dissolved in ethanol (5% v/v) and added to the potato dextrose agar medium (PDA) medium in the petri dishes to obtain a final concentration of 10, 25, 50, 150, and 250 µg/mL.” left out, “compounds. […]” for “compounds.”

EC50 [1] | EC50 [2] | EC50 ± SD, mycelial growth inhibition [1] | SMILES | LD50 (BSLT) (Artemia salina L. larvae) | inhibition at 150 µg/mL ([3]; 150 µg/mL) | inhibition at 250 µg/mL ([3]; 250 µg/mL) | times less toxic than the commercial control of M. fructicola (BSLT) (Artemia salina L. larvae; compared with the commercial control (Mystic 520 SC))
> 250 µg/mL | > 250 µg/mL |  | C=C(C)[C@@H]1CCC(C)C(=O)C1=Cc1ccccc1 (stereo partly drawn) [Compound 2, (3S)-2-benzylidene-3-isopropenyl-6-methylcyclohexanone] | >1000 µg/mL |  |  | 
> 250 µg/mL | 58 ± 0.7 µg/mL (≈ 215 µM) |  | C=C(C)[C@@H]1CCC(C)C(=O)C1=Cc1ccccc1OC (stereo partly drawn) [Compound 3, (3S)-3-isopropenyl-2-(2-methoxybenzylidene)-6-methylcyclohexanone] | >1000 µg/mL |  |  | 
273.2 ± 0.9 µg/mL (≈ 1010 µM) | 39.6 ± 1.1 µg/mL (≈ 146 µM) |  | C=C(C)[C@@H]1CCC(C)C(=O)C1=Cc1cccc(OC)c1 (stereo partly drawn) [Compound 4, (3S)-3-isopropenyl-2-(3-methoxybenzylidene)-6-methylcyclohexanone] | >1000 µg/mL |  |  | 
> 250 µg/mL | 23.1 ± 1.2 µg/mL (≈ 85.4 µM) |  | C=C(C)[C@@H]1CCC(C)C(=O)C1=Cc1ccc(OC)cc1 (stereo partly drawn) [Compound 5, (3S)-3-isopropenyl-2-(4-methoxybenzylidene)-6-methylcyclohexanone] | >1000 µg/mL |  |  | 
146 to 148 µg/mL (≈ 569 to 578 µM) | 15.7 ± 1.3 µg/mL (≈ 61.2 µM) | 145.9 ± 1.7 µg/mL (≈ 569 µM) | C=C(C)[C@@H]1CCC(C)C(=O)C1=Cc1cccc(O)c1 (stereo partly drawn) [Compound 8, (3S)-2-(3-hydroxybenzylidene)-3-isopropenyl-6-methylcyclohexanone] | 890 µg/mL | 47 to 88% | 62 to 97% | 

The remaining lines, values behind:

SMILES | EC50 [1] | EC50 [2] | EC50 ± SD, mycelial growth inhibition [1] | LD50 (BSLT) (Artemia salina L. larvae) | inhibition at 150 µg/mL ([3]; 150 µg/mL) | inhibition at 250 µg/mL ([3]; 250 µg/mL) | times less toxic than the commercial control of M. fructicola (BSLT) (Artemia salina L. larvae; compared with the commercial control (Mystic 520 SC))
C=C(C)[C@@H]1CCC(C)C(=O)C1 (some centres unmarked) [Compound 1, Dihydrocarvone] | > 250 µg/mL | > 250 µg/mL |  | 550 µg/mL |  |  | 
C=C(C)[C@@H]1CCC(C)C(=O)C1=Cc1ccc(OC)c(OC)c1 (stereo partly drawn) [Compound 6, (3S)-2-(3,4-dimethoxybenzylidene)-3-isopropenyl-6-methylcyclohexanone] | > 250 µg/mL | 47.7 ± 0.8 µg/mL (≈ 159 µM) |  | 954 µg/mL |  |  | 
C=C(C)[C@@H]1CCC(C)C(=O)C1=Cc1ccc2c(c1)OCO2 (stereo partly drawn) [Compound 7, (3S)-2-(1,3-benzodioxol-5-ylmethylene)-3-isopropenyl-6-methylcyclohexanone] | 146 to 148 µg/mL (≈ 513 to 521 µM) | 18.1 µg/mL (≈ 63.7 µM) | 148.1 ± 1.4 µg/mL (≈ 521 µM) | 910 µg/mL |  |  | 
C=C(C)[C@@H]1CCC(C)C(=O)C1=Cc1ccc(O)cc1 (stereo partly drawn) [Compound 9, (3S)-2-(4-hydroxybenzylidene)-3-isopropenyl-6-methylcyclohexanone] | > 250 µg/mL | > 250 µg/mL |  | 847 µg/mL |  |  | 80 times
